{
  "source": "ChEMBL document CHEMBL5465560",
  "about": "“Selectivity Literature for EUbOPEN Chemogenomic Library” (2024)",
  "key": {"[1]": {"target": "T1, Mitogen-activated protein kinase kinase kinase 3 (Homo sapiens) (UniProt Q99759)", "T1 sequence (whole entry)": "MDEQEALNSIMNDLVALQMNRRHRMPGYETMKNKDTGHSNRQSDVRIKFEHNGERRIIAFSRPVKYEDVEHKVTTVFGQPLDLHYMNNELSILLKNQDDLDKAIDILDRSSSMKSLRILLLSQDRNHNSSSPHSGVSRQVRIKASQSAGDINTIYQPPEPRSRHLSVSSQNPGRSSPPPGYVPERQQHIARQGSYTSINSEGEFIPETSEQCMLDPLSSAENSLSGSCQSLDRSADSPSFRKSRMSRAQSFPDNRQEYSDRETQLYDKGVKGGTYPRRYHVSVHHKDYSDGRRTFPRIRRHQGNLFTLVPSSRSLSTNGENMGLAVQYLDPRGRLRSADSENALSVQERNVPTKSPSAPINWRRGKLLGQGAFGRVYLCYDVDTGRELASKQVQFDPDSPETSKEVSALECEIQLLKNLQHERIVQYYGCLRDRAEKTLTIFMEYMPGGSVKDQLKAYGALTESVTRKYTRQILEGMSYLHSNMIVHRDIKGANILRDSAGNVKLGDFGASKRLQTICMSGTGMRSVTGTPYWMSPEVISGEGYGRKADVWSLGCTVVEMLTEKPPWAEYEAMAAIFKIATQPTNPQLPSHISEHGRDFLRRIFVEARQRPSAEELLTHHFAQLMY", "assay": "Selectivity interaction (ActivX KiNativ screen (kinase selectivity in THP-1 cell lysates)) EUB0000639a MAP3K3", "format": "subcellular", "settings": "lysate, at 1 µM"}, "[2]": {"target": "T2, Cyclin-G-associated kinase (Homo sapiens) (UniProt O14976)", "T2 sequence (whole entry)": "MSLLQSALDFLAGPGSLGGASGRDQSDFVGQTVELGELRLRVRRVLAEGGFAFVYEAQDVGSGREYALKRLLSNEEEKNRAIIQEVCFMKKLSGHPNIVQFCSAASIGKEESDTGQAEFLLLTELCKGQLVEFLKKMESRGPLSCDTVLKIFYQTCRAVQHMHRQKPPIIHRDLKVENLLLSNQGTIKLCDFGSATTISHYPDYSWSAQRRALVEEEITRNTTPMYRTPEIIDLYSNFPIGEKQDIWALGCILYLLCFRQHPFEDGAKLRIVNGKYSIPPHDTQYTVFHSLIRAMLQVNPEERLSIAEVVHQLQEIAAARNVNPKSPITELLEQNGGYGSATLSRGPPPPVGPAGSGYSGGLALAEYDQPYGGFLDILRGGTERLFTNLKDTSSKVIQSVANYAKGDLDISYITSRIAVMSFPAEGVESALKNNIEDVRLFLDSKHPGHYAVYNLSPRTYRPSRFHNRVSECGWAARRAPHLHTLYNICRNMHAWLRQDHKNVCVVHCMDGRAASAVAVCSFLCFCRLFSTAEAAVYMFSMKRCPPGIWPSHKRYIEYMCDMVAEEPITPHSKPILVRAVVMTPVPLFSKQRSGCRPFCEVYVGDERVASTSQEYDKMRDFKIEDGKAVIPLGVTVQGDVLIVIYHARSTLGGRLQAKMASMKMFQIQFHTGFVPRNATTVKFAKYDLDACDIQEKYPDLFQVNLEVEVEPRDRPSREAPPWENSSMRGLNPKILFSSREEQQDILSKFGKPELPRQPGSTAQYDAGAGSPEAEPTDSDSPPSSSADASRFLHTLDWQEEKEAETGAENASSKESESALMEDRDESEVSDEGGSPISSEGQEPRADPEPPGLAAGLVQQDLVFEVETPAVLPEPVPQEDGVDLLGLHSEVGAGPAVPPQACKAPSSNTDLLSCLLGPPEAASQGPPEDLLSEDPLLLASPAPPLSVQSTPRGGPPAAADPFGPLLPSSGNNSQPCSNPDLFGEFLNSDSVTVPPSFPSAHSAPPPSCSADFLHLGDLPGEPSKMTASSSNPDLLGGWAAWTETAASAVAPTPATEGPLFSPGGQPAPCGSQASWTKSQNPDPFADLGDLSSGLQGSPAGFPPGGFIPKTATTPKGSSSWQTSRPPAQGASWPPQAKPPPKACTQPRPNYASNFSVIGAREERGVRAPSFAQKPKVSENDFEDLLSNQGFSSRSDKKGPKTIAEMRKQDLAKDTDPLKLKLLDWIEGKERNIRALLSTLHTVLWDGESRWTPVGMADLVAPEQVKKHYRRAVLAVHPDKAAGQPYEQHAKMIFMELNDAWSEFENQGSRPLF", "assay": "Selectivity interaction (ActivX KiNativ screen (kinase selectivity in THP-1 cell lysates)) EUB0000639a GAK", "format": "subcellular", "settings": "lysate"}, "[3]": {"target": "Fibroblast growth factor receptor 3 (Homo sapiens, UniProt P22607)", "sequence (P22607 23-806 limits assumed)": "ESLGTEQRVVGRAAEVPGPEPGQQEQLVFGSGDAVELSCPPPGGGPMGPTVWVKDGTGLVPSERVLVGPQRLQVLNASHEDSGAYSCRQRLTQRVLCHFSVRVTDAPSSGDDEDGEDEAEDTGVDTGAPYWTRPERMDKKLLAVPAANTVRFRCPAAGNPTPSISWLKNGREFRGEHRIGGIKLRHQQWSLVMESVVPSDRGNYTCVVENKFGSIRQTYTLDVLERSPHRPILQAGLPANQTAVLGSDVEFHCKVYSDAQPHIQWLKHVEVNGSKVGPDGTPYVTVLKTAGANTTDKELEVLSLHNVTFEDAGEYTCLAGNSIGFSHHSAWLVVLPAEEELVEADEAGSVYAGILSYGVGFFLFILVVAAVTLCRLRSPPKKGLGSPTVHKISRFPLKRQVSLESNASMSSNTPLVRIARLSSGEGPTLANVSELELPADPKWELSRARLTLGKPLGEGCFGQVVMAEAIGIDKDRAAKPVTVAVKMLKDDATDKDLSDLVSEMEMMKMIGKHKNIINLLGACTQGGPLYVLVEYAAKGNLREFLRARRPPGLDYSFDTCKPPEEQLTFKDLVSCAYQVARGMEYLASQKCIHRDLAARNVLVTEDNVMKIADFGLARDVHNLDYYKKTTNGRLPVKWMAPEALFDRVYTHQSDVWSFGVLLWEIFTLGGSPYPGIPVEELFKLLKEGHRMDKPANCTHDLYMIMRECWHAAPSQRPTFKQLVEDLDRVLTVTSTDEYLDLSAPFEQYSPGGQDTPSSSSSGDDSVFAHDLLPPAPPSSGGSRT", "assay": "Selectivity interaction (Kinase screening (Nanosyn)) EUB0000604a FGFR3"}},
  "data": [
    {"molecule": "CC[C@@H]1[C@H](F)C(=O)N[C@@H]1COc1nccc2cc(C(N)=O)c(OC)cc12", "note": "[ZIMLOVISERTIB]", "values": [
      {"measurement": "% of inhibition", "setting": "[1]", "value": -7.9, "unit": "%"},
      {"measurement": "% of inhibition", "setting": "[2]; at 0.01 µM", "value": 16.2, "unit": "%"},
      {"measurement": "% of inhibition", "setting": "[2]; at 0.04 µM", "value": 3.7, "unit": "%"},
      {"measurement": "% of inhibition", "setting": "[2]; at 0.2 µM", "value": -10, "unit": "%"},
      {"measurement": "% of inhibition", "setting": "[2]; at 1 µM", "value": 15.7, "unit": "%"},
      {"measurement": "% of inhibition", "setting": "[2]; at 5 µM", "value": 63.1, "unit": "%"}
    ]},
    {"molecule": "Cc1cnc(Nc2ccc(F)cc2Cl)nc1-c1c[nH]c(C(=O)N[C@H](CO)c2cccc(Cl)c2)c1", "values": [
      {"measurement": "% of inhibition", "setting": "[3]", "value": 8, "unit": "%"}
    ]}
  ]
}
